Measured values as given in ChEMBL document CHEMBL1909046, “DrugMatrix in vitro pharmacology data”.

Legend:
[1] = biological target: T1, Type-2 angiotensin II receptor (Homo sapiens, UniProt P50052); type: cell-based; conditions: cho-k1; also: in other assays of this panel Not Active means under 50% inhibition at 10 µM
T1 sequence (P50052 whole entry): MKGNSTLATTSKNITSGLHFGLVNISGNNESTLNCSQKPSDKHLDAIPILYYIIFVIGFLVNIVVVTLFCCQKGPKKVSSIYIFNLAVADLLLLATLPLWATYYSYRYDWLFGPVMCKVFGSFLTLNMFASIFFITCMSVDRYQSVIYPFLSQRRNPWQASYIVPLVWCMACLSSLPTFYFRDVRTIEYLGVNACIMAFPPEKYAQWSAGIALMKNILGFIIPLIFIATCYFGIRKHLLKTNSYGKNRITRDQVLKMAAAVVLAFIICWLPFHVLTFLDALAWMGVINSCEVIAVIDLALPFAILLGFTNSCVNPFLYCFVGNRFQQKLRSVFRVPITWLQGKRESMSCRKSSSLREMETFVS

[2] = biological target: T2, Calcitonin receptor (Homo sapiens, UniProt P30988); type: cell membranes, Membrane; conditions: t47d; also: in other assays of this panel Not Active means under 50% inhibition at 10 µM
T2 sequence (P30988 whole entry): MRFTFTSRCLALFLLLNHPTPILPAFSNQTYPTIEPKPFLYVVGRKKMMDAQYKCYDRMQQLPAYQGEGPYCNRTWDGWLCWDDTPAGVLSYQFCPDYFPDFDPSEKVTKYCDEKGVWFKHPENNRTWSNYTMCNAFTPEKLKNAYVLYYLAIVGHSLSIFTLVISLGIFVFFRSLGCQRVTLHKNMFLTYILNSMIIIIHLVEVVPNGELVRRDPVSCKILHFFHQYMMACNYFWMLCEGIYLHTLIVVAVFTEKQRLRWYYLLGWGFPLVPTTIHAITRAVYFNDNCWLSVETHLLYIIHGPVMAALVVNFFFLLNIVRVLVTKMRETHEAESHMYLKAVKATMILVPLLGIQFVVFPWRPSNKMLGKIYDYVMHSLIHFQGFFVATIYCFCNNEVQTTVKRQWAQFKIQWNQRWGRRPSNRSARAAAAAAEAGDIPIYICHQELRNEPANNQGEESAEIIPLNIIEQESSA

[3] = DRUGMATRIX: Sigma2 radioligand binding (ligand: [3H] Ifenprodil); type: cell membranes, Rattus norvegicus, Wistar, Brain, Membrane; conditions: Not Active = under 50% inhibition at 10 µM
[4] = biological target: Vasopressin V1a receptor (Homo sapiens, UniProt P37288); type: cell membranes, Membrane; conditions: hek293; also: in other assays of this panel Not Active means under 50% inhibition at 10 µM
[5] = DRUGMATRIX: GABAA, Flunitrazepam, Central radioligand binding (ligand: [3H] Flunitrazepam); type: cell membranes, Rattus norvegicus, Wistar, Brain, Membrane; conditions: Not Active = under 50% inhibition at 10 µM
[6] = biological target: T3, Muscarinic acetylcholine receptor M4 (Homo sapiens, UniProt P08173); type: cell membranes, CHO-K1, Membrane; conditions: cho-k1; also: in other assays of this panel Not Active means under 50% inhibition at 10 µM
T3 sequence (P08173 whole entry): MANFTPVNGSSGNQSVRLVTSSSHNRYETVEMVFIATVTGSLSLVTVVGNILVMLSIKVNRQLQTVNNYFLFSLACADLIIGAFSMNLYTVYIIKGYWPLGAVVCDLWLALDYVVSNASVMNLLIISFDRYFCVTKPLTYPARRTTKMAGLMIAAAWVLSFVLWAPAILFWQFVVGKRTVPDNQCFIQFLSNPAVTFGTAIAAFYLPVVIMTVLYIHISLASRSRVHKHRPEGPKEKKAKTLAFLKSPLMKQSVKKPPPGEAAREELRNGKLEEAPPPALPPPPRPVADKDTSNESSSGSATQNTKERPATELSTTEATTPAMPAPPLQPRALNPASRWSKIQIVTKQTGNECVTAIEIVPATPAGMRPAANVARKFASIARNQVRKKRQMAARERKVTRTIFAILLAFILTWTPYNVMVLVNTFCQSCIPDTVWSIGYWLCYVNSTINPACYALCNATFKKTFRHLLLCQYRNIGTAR

[7] = biological target: T4, Nitric oxide synthase, inducible (Mus musculus, UniProt P29477); parameters: species or system Escherichia coli
T4 sequence (P29477 whole entry): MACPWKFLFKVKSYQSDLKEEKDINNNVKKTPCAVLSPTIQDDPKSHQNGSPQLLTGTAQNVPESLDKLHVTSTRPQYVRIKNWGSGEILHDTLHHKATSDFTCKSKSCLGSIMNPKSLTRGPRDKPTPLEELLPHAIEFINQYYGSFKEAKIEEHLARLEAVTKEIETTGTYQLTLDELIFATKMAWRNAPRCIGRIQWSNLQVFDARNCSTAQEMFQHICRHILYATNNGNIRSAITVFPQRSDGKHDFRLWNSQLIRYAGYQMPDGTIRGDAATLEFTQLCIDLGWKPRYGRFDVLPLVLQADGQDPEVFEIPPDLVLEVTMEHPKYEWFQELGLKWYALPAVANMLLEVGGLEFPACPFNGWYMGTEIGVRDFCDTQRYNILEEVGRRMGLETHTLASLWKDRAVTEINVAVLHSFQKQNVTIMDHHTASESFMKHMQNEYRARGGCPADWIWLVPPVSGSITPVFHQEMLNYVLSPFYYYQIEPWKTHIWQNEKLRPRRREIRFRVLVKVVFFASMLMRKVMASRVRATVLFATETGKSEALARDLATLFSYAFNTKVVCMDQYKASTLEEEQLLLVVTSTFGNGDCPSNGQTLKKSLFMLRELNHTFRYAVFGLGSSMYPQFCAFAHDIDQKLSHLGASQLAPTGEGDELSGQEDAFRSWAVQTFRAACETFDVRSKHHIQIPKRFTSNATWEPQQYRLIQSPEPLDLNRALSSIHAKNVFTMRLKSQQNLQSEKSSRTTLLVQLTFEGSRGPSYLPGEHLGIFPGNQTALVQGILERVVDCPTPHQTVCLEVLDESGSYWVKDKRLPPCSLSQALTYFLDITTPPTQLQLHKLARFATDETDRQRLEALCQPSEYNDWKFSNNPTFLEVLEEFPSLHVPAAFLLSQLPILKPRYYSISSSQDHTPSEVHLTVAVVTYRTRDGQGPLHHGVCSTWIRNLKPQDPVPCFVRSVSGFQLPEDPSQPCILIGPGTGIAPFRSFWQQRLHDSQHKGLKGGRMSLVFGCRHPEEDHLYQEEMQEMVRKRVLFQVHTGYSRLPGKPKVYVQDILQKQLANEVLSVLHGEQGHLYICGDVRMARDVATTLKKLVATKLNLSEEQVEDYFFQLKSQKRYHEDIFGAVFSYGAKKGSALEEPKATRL

Vasopressin V1a receptor, sequence (P37288 whole entry): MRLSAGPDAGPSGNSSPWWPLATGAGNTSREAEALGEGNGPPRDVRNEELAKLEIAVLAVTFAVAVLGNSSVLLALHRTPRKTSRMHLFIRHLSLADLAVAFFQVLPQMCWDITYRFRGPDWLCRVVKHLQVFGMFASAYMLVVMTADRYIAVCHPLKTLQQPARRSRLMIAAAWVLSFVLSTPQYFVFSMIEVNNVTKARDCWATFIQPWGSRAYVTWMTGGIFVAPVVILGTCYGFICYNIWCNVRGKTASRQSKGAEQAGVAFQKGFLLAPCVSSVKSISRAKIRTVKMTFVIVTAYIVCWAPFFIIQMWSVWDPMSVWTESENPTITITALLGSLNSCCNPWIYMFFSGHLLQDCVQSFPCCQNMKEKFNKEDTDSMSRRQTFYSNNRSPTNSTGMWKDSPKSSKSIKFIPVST

Compound	IC50 [1]	IC50 [2]	IC50 [3]	Ki [3]	IC50 [4]	IC50 ([5]; read-out: IC50) [nM]	Ki ([5]; read-out: Ki) [nM]	IC50 [6]	IC50 [7]	IC50 [5]	Ki [5]	IC50 ([3]; read-out: IC50) [nM]	Ki ([3]; read-out: Ki) [nM]	Ki [1]	Ki [2]	Ki [4]	Ki [6]	Ki [7]
Cc1nnc2n1-c1ccc(Cl)cc1C(c1ccccc1)=NC2 [ALPRAZOLAM]	Not Active	Not Active	Not Active	Not Active	Not Active	16.6	13.5	Not Active	Not Active									
COC(=O)CCc1ccc(OCC(O)CNC(C)C)cc1 (stereo unspecified) [ESMOLOL]	Not Active	Not Active	Not Active	Not Active	Not Active			Not Active	Not Active	Not Active	Not Active							
COc1ccc2cc3[n+](cc2c1OC)CCc1cc2c(cc1-3)OCO2.[Cl-] [BERBERINE CHLORIDE]	Not Active	Not Active			Not Active			Not Active	Not Active	Not Active	Not Active	95	59					
NC(=O)C[S+]([O-])C(c1ccccc1)c1ccccc1 (stereo unspecified) [MODAFINIL]	Not Active	Not Active	Not Active	Not Active	Not Active			Not Active	Not Active	Not Active	Not Active							
CC(C)=CCC/C(C)=C/CO [GERANIOL]	Not Active	Not Active	Not Active	Not Active	Not Active			Not Active	Not Active	Not Active	Not Active							
NCCCC(O)(P(=O)(O)O)P(=O)(O)O [ALENDRONIC ACID]	Not Active	Not Active	Not Active	Not Active	Not Active			Not Active	Not Active	Not Active	Not Active							
C[C@@H]1CC[C@@]2(OC1)O[C@H]1[C@@H](O)[C@H]3[C@@H]4CC[C@H]5C[C@@H](O[C@@H]6O[C@H](CO)[C@H](O[C@@H]7O[C@H](CO)C(O)[C@H](O[C@@H]8OC[C@@H](O)[C@H](O)[C@H]8O)[C@H]7O[C@@H]7O[C@H](CO)[C@H](O)[C@H](O[C@@H]8O[C@H](CO)[C@@H](O)[C@H](O)[C@H]8O)[C@H]7O)[C@H](O)[C@H]6O)[C@H](O)C[C@]5(C)[C@H]4CC[C@]3(C)[C@H]1[C@@H]2C (stereo partly specified) [DIGITONIN]	Not Active	Not Active	Not Active	Not Active	Not Active			Not Active	Not Active	Not Active	Not Active							
O=C1CN=C(c2ccccc2Cl)c2cc([N+](=O)[O-])ccc2N1 [CLONAZEPAM]	Not Active	Not Active	Not Active	Not Active	Not Active	4.93	4.02	Not Active	Not Active									
AURANOFIN	Not Active	Not Active	Not Active	Not Active	Not Active			Not Active	Not Active	Not Active	Not Active			Not Active	Not Active	Not Active	Not Active	Not Active
COC(=O)Nc1nc2ccc(C(=O)c3cccs3)cc2[nH]1 [NOCODAZOLE]	Not Active	Not Active	Not Active	Not Active	Not Active			Not Active	Not Active	Not Active	Not Active							
C[C@H]1O[C@@H](n2cc(F)c(=O)[nH]c2=O)[C@H](O)[C@@H]1O [DOXIFLURIDINE]	Not Active	Not Active	Not Active	Not Active	Not Active			Not Active	Not Active	Not Active	Not Active							
CC(C(=O)O)c1ccc2oc(-c3ccc(Cl)cc3)nc2c1 (stereo unspecified) [BENOXAPROFEN]	Not Active	Not Active	Not Active	Not Active	Not Active			Not Active	Not Active	Not Active	Not Active							
GADOPENTETATE DIMEGLUMINE	Not Active	Not Active	Not Active	Not Active	Not Active			Not Active	Not Active	Not Active	Not Active			Not Active	Not Active	Not Active	Not Active	Not Active
Nc1ccc2c3c(cccc13)C(=O)NC2=O	Not Active	Not Active	Not Active	Not Active	Not Active			Not Active	Not Active	Not Active	Not Active							
C[n+]1ccccc1/C=N/O.[Cl-] [PRALIDOXIME CHLORIDE]	Not Active	Not Active	Not Active	Not Active	Not Active			Not Active	Not Active	Not Active	Not Active							
NNc1nncc2ccccc12 [HYDRALAZINE]	Not Active	Not Active	Not Active	Not Active	Not Active			Not Active	Not Active	Not Active	Not Active							
O=c1cnn([C@@H]2O[C@H](CO)[C@@H](O)[C@H]2O)c(=O)[nH]1 [6-AZAURIDINE]	Not Active	Not Active	Not Active	Not Active	Not Active			Not Active	Not Active	Not Active	Not Active							
CN1[C@@H]2CC[C@H]1C[C@@H](OC(=O)C(CO)c1ccccc1)C2 (stereo partly specified) [ATROPINE]	Not Active	Not Active	Not Active	Not Active	Not Active				Not Active	Not Active	Not Active							
